In patent publication US20110039762A1, “TARGETED ANTIMICROBIAL MOIETIES” (C3 JIAN, INC., priority 2009, published 2011):
Entries after “also recorded” stand apart in the source; their conditions may differ.

Each substance was assayed on microorganisms (e.g., bacteria, yeasts, fungi) (assay: Targeting peptide binding to target microorganisms (Table 3)). Conditions: microorganism the targeting peptide binds; binding in aqueous buffers varied by peptide solubility, preferably 1x PBS.

Substance	Target(s)
1T-87 (EAVGQDLVDAHHP; Peptide with targeting and/or antimicrobial activity) [Peptide 1T-87]	S. mitis; also recorded: S. mutans; also recorded: S. oralis
1T-78 (FFKTIFVLILGALGVAAGLYIEKNYIDK; Peptide with targeting and/or antimicrobial activity) [Peptide 1T-78]	S. pneumoniae
1T-6 (KFINGVLSQFVLERK; Peptide with targeting and/or antimicrobial activity) [Peptide 1T-6]	S. mutans
1T-71 (KIDTNQWPPNKEG; Peptide with targeting and/or antimicrobial activity) [Peptide 1T-71]	P. aeruginosa
1T-42 (TVLDWLSLALATGLFVYLLVALLRADRA; Peptide with targeting and/or antimicrobial activity) [Peptide 1T-42]	S. aureus; also recorded: S. epidermidis; also recorded: C. xerosis; also recorded: C. striatum; also recorded: P. aeruginosa
1T-286 (LGFFNNKADLVKADTERDNRMSSLKIKDL; Peptide with targeting and/or antimicrobial activity) [Peptide 1T-286]	S. sanguinis
1T-32 (VSFLAGWLCLGLAAWRLGNA; Peptide with targeting and/or antimicrobial activity) [Peptide 1T-32]	S. mutans
1T-215 (VCFKDISVFLSPFRGQEVLFCGKAKHSLIYVIGT; Peptide with targeting and/or antimicrobial activity) [Peptide 1T-215]	S. sanguinis
1T-73 (GWWEELLHETILSKFKITKALELPIQL; Peptide with targeting and/or antimicrobial activity) [Peptide 1T-73]	S. pneumoniae
1T-48 (KLQVHHGRATHTLLLQPPLCAPGTIR; Peptide with targeting and/or antimicrobial activity) [Peptide 1T-48]	S. aureus; also recorded: S. epidermidis; also recorded: C. jeikeium; also recorded: C. xerosis; also recorded: C. striatum; also recorded: P. aeruginosa
1T-3 (VLGIAGGLDAYGELVGGN; Peptide with targeting and/or antimicrobial activity) [Peptide 1T-3]	S. mutans; also recorded: S. gordonii
1T-123 (LVRRNAVAGRSDGLAGAEQLDLVRLQGVL; Peptide with targeting and/or antimicrobial activity) [Peptide 1T-123]	S. gordonii
1T-12 (FGNIFKGLKDVIETIVKWTAAK; Peptide with targeting and/or antimicrobial activity) [Peptide 1T-12]	C. xerosis; also recorded: C. striatum; also recorded: S. epidermidis; also recorded: S. mutans
PF-038 (MAYKDEGKETKFAVKGYKD; Peptide with targeting and/or antimicrobial activity)	M. luteus
TT-306 (KILNEAEGKLLKVIEKNGEIDIEEI; Peptide with targeting and/or antimicrobial activity)	F. nucleatum
1T-4 (LDAYGELVGGN; Peptide with targeting and/or antimicrobial activity) [Peptide 1T-4]	S. gordonii; also recorded: S. sanguinis; also recorded: S. oralis; also recorded: V. atypica; also recorded: L. casei; also recorded: S. mutans
1T-242 (KQVQNTTLIICGTVLLGILFKSYLKSQKSV; Peptide with targeting and/or antimicrobial activity) [Peptide 1T-242]	F. nucleatum; also recorded: S. sanguinis
1T-77 (EMRISRIILDFLFLRKK; Peptide with targeting and/or antimicrobial activity) [Peptide 1T-77]	S. pneumoniae
1T-89 (HEDDKRRGMSVEVLGFEVVQHEE; Peptide with targeting and/or antimicrobial activity) [Peptide 1T-89]	S. mitis; also recorded: S. mutans
1T-29 (GSVIKKRRKRMSKKKHRKMLRRTRVQRRKLGK; Peptide with targeting and/or antimicrobial activity) [Peptide 1T-29]	S. epidermidis; also recorded: C. jeikeium; also recorded: C. xerosis; also recorded: C. striatum; also recorded: P. aeruginosa; also recorded: S. mutans; also recorded: S. aureus
1T-282 (ISLVFPAYT; Peptide with targeting and/or antimicrobial activity) [Peptide 1T-282]	F. nucleatum; also recorded: P. gingivalis; also recorded: S. gordonii; also recorded: S. mitis; also recorded: S. mutans; also recorded: S. oralis; also recorded: S. salivarious; also recorded: S. sanguinis

Same assay, conditions: microorganism(s) the targeting peptide binds; binding in aqueous buffers depending on peptide solubility, preferably 1x PBS

Substance	Target(s)
PF-200 (GIELKSLIMAQIERWRQA; Peptide with targeting and/or antimicrobial activity)	S. epidermidis and M. luteus and MRSA and E. faecalis and C. jeikeium
PF-311 (IDAVTKKKTTCMIRAPTKIPIAHTDN; Peptide with targeting and/or antimicrobial activity)	C. difficile
PF-282 (QNNDTSAWCGSAHKNGNS; Peptide with targeting and/or antimicrobial activity)	S. mutans
PF-197 (CNALLRRGHPPSAL; Peptide with targeting and/or antimicrobial activity)	S. epidermidis; also recorded: M. luteus; also recorded: C. albicans; also recorded: E. faecalis; also recorded: C. jejuni
PF-248 (ILSKLWFWMINSLGVVLLVSYWLLAKWGVA; Peptide with targeting and/or antimicrobial activity)	S. mutans; also recorded: S. epidermidis; also recorded: M. luteus; also recorded: E. coli; also recorded: P. aeruginosa; also recorded: A. baumannii
PF-371 (TFIYNEF; Peptide with targeting and/or antimicrobial activity)	S. epidermidis; also recorded: B. fragilis; also recorded: C. jejuni
PF-155 (GRYGDDSKERQGRAQ; Peptide with targeting and/or antimicrobial activity)	C. jeikeium
PF-184 (LIADRHIRA; Peptide with targeting and/or antimicrobial activity)	S. epidermidis and M. luteus and E. coli and P. aeruginosa and C. albicans and MRSA and C. jeikeium
PF-185 (RPAQARQGPGGLIADRHIRA; Peptide with targeting and/or antimicrobial activity)	E. coli; also recorded: P. aeruginosa
PF-245 (MNDVKPVVQPKQTLKAFLVQLLSVRAGVYIKQNNQLPKTKG; Peptide with targeting and/or antimicrobial activity)	S. epidermidis; also recorded: M. luteus; also recorded: P. aeruginosa; also recorded: A. baumannii
PF-189 (GNLTRSREAARATQ; Peptide with targeting and/or antimicrobial activity)	S. epidermidis and M. luteus and C. albicans and MRSA and E. faecalis and C. jejuni
PF-368 (MLKQTA; Peptide with targeting and/or antimicrobial activity)	C. jeikeium; also recorded: C. jejuni
PF-229 (DPILIQIGFTRFALRKAEAEKIEIQVEEGVPA; Peptide with targeting and/or antimicrobial activity)	S. epidermidis; also recorded: M. luteus; also recorded: P. aeruginosa; also recorded: A. baumannii

Same assay, conditions: microorganism(s) the targeting peptide binds; peptide binding conducted in aqueous buffers varied by peptide solubility, preferably 1x PBS

Substance	Target(s)
PF-487 (MYKAIAVLAMTIMAFFIFVYPFFIVGLILG; Peptide with targeting and/or antimicrobial activity)	S. mutans; also recorded: E. coli
PF-441 (TQVHKMARGIDPGPANGIYR; Peptide with targeting and/or antimicrobial activity)	C. jeikeium
PF-488 (YPNEQGHHKNNLKNIIIE; Peptide with targeting and/or antimicrobial activity)	S. mutans; also recorded: E. coli
PF-402 (FIDVLKSKINEFLN; Peptide with targeting and/or antimicrobial activity)	S. epidermidis; also recorded: P. aeruginosa; also recorded: E. faecalis; also recorded: C. jejuni

Same assay, conditions: peptide binding in aqueous buffers varied by peptide solubility; preferably 1x PBS

Substance	Target(s) (microorganisms bound by the targeting peptide)
PF-720 (SLDMGK; Peptide with targeting and/or antimicrobial activity)	S. mutans
PF-650 (IRSDQPGRQSRSSPRWPTGAGRHR; Peptide with targeting and/or antimicrobial activity)	Mycobacteria spp
PF-751 (AESSPAQETT; Peptide with targeting and/or antimicrobial activity)	S. epidermidis; also recorded: E. coli; also recorded: C. albicans; also recorded: C. jeikeium
PF-798 (ALHSKGIKVMADWVPDQMYA; Peptide with targeting and/or antimicrobial activity)	S. mutans
PF-782 (TGPRRGIDLTSNRALSEVLDEGLELNSRK; Peptide with targeting and/or antimicrobial activity)	Mycobacteria spp.
PF-669 (RADRIESYPADGDRVITLWRNPYR; Peptide with targeting and/or antimicrobial activity)	Mycobacteria spp
PF-790 (PAGPDHLDQRDHR; Peptide with targeting and/or antimicrobial activity)	Mycobacteria spp.
PF-706 (LGYGAWIGCGLGLNGFHRID; Peptide with targeting and/or antimicrobial activity)	L. pneumophila
PF-800 (WYYFDNNGYM; Peptide with targeting and/or antimicrobial activity)	S. mutans
PF-717 (PQSEVTFENIYAPKANGGGLYGI; Peptide with targeting and/or antimicrobial activity)	E. coli
